# Source: a melting point compilation (Tetko et al.; mined from patent text by program, amines drawn as free bases though some values may be those of a salt)
row,melting point [°C],Compound
1,166 to 168,Cc1c(NC(=O)C(CS)CC(C)C)cccc1C(=O)O (stereo unspecified)
2,212,CCn1c(=S)sc2c(=N)n(NC(N)=O)cnc21
3,52 to 53,C=CCOc1cc(NC(=O)C2CCCCC2C(=O)OCC)c(F)cc1Cl (stereo unspecified)
4,114 to 117,O=C(O)C(Cc1ccccc1)Nc1ncnc(-c2ccc(OCc3ccccc3)cc2)c1CO (stereo unspecified)
5,158,CCOC(=O)c1cnc2c(OC)nccc2c1Nc1ccccc1C
6,147,CCOC(=O)CNC(=O)c1cc(F)c(F)cc1N
7,70 to 72,COc1cc(C=C2C(=O)CCc3c2ccc(OC)c3OC)c([N+](=O)[O-])cc1OC
8,106 to 107,c1ccc(C(Oc2ccc(-c3nc(COc4ccc(CCCn5ccnc5)cc4)co3)cc2)c2ccccc2)cc1
9,> 350,O=c1[nH]ncc2c1c(O)nc1cc(Cl)cc(Cl)c12
10,208 to 209,Cc1nc2c(N)nc3ccccc3c2n1CCCNC(=O)C1CCCC1
11,130,CCN(CC)C(=O)c1cc(-c2ccc(Cl)cc2)nc2ccc(Cl)cc12
12,80 to 102,Clc1ccccc1C(Oc1ccccc1)C1CNCCO1 (stereo unspecified)
13,207 to 209,CCCc1c2nc(C(=O)OCC)cc(C#N)c2cc2c(=O)cc(C(=O)OCC)oc12
14,87 to 111,CC[C@@H]1NC(=O)C[C@]1(C)O
15,84 to 86,Cc1c(N)c(C)c(C(C)C)c2c1CC(C)(CI)O2 (stereo unspecified)
16,206 to 207,CN(OCc1nc2c(N)nc3ccccc3c2n1CC(C)(C)O)C(N)=O
17,220 to 222,Oc1ccc2[nH]cc(CCCCN3CCN(c4ccc5c(c4)CCCO5)CC3)c2c1
18,262,ON=c1cc(-c2cnccn2)ss1
19,207 to 209,Nc1nc(F)nc2c1ncn2C1OC(CO)C(O)C1F (stereo unspecified)

row,melting point [°C],Compound
1,98 to 99,COC(=O)c1c(Cl)cc(Cl)cc1NC(=O)CSc1ccccc1Cl
2,242 to 243,CNC(=O)c1cc(C#N)cc(C)c1NC(=O)c1cc(Br)nn1-c1ccccc1Cl
3,280 to 282,O=C1NC(=S)SC1=Cc1ccc2c(c1)N(CCc1cccc(Cl)c1)C(=O)CO2
4,206 to 208,CC(=O)N1CCc2c(c3ccc(-n4ccc(OCc5ccccc5)cc4=O)nc3n2C)C1
5,121 to 123,Cc1cn(Nc2ccncn2)c2ccccc12
6,132 to 133,O=C(NCC1CC1)N1CC(Oc2ccc(C(F)(F)F)cc2)C1
7,192,Cc1cc(C)cc(NCc2ccc3nc(NCCCN4CC(C)OC(C)C4)n(Cc4nc(C)ccc4O)c3c2)c1 (stereo unspecified)
8,194 to 195,Cc1oc(-c2ccccc2)nc1COc1ccc(Cn2cc(C(=O)O)c(C(C)C)n2)cc1
9,211 to 212,O=C1Cc2cc(C(=O)[C@H]3CC[C@H]3C(=O)O)ccc2N1 (relative stereo)
10,207 to 208,O=c1ccsc2c3ccccc3n(-c3ccccc3[N+](=O)[O-])c12
11,147 to 148,O=C(Nc1ccc(OCCN2CCOCC2)c2ccccc12)c1cccc(N2CCCCC2)c1
12,217 to 236,CCCC(=O)c1c(C(C)(C)C)cc(C=[N+]([O-])C(C)(C)C)cc1C(C)(C)C
13,130 to 131,CCOC(=O)/C=C(C)/C=C/C=C(\C)C1=Cc2cc(C(C)(C)C)cc(C(C)(C)C)c2OC1
14,174 to 175,c1ccc(CCn2ncc3c2ncn2nc(-c4ccco4)nc32)cc1
15,174 to 175,O=Cc1c2ccccc2c(Cl)c2cc(Cl)ccc12
16,276,O=c1[nH]c2ccc(Br)cc2cc1[N+](=O)[O-]
17,133,CCOC(=O)c1nn(-c2ccc(Cl)cc2Cl)c(-c2ccc(Br)cc2)c1C
18,48.1,CCCCCC1CCc2cc(C(=O)Oc3ccc(CCCC)cc3)ccc2C1 (stereo unspecified)
19,103 to 104,CC(=O)Oc1c(C)cc(N(C)C(=O)OC(C)(C)C)c(C)c1C

row,melting point [°C],Compound
1,196 to 198,OC(CCc1ccccc1)(c1ccccc1)c1cncn1Cc1ccccc1 (stereo unspecified)
2,200,COc1cccc(-c2cncc(OC3SCC(O)C(O)C3O)c2)c1 (stereo unspecified)
3,253 to 254,O=c1[nH]c2ccccc2c2ccnn12
4,215,CS(=O)c1cc(O)ccc1-c1nc2cnccc2[nH]1 (stereo unspecified)
5,180,CCOC1=NC(N)=C(C(=O)OC)C(c2ccccc2F)C1C(=O)OC (stereo unspecified)
6,214 to 218,CC12CCC(O)CC1=CCC1C2CCC2(C)C(c3cccnc3)=CCC12 (stereo unspecified)
7,42 to 43,CCCCNc1c(C(=O)OCC)c(C)nc2c1nnn2CC
8,144 to 147,COc1ccc(C2(CNC(=O)Nc3c(C(C)C)cccc3C(C)C)CCCC2)cc1
9,55 to 56,CCOC(=O)CN(CC(=O)OCC)C(=O)C(=O)c1ccc(OCCCCCCCCCCCCOc2ccccc2)cc1
10,53 to 55,CCCCCCC[C@H]1O[C@H]1C(=O)O
11,145 to 146,O=C1Cc2c(cccc2OCCNCc2ccccc2)N1
12,72 to 74,COC(=O)c1ccc(C(=O)N2CCCc3ccccc32)cc1
13,122 to 125,Cc1cccc(-c2n[nH]cc2-c2ccc(F)c(-c3cc(F)c(S(N)(=O)=O)cc3F)c2)n1
14,96 to 96.5,COc1ccc(C(O)CCCC(=O)Nc2ccccc2)cc1 (stereo unspecified)
15,208 to 209,C=CCOc1nc(Cl)nc2nc[nH]c12
16,283 to 284,O=C(O)c1cn(C2CC2)c2c(F)c(N3C[C@H](CF)[C@H](NC(=O)C(F)(F)F)C3)c(F)c(F)c2c1=O (relative stereo)
17,105 to 108,O=C(c1cccnc1)C(O)c1ccccc1Br (stereo unspecified)
18,325,Cc1cccc2[nH]c(=O)c(=O)[nH]c12

# More lines, now with the values behind:
row,Compound,melting point [°C]
1,CCC(CC)c1ccc(CO)c2nc(Oc3c(C)cc(Cl)cc3Cl)n(C)c12,141 to 143
2,C=CCNc1cc(Oc2ccccc2)c(Cl)cc1[N+](=O)[O-],81 to 82
3,CCCc1cn(C)c2c(=O)[nH]c(-c3cc(S(=O)(=O)N4CCN(CCOC(C)=O)CC4)ccc3OCC)nc12,192
4,COC(=O)c1ccc(-c2ccc(-c3ccccc3)c(OS(=O)(=O)C(F)(F)F)c2)cc1,95
5,CCn1nc(Br)c([N+](=O)[O-])c1NCc1ccccc1,92
6,CC12CCC(C(=O)CC1=O)C2(C)C (stereo unspecified),220
7,NS(=O)(=O)c1ccc(-c2coc(=O)n2-c2ccc(F)cc2)cc1,211 to 213
8,CN1CCc2nc3ccc(Cl)cc3c(Nc3ccccc3)c2C1,137 to 139
9,CN1CC2C3C=CC(C3)C2(c2cccc(O)c2)C1 (stereo unspecified),129 to 136
10,CC12CC(N3CCC4(CC3)OCCO4)C(O)CC1CCC1C2CCC2(C)C(O)C(N3CCCC3)CC12 (stereo unspecified),184 to 187
11,CCC(CC)(OC)c1ccc(Cl)c2nc3n(c12)CCCN3c1ccc(Cl)cc1C(F)(F)F,172 to 173
12,CC1(C)CC(C)(C)c2cc(Cl)c(O)cc21,52
13,O=c1[nH]c(-c2ccccc2)c(-c2ccncc2)o1,300
14,Cn1nnnc1C(/C=C/[C@@H]1C[C@@H](O)CC(=O)O1)=C(c1ccc(F)cc1)c1ccc(F)cc1,104 to 106
15,CCOC(=O)C(CC)C(=O)Nc1cc(Cl)cc(Cl)c1 (stereo unspecified),96.5 to 98
16,CC(=O)Oc1ccc(P(c2ccccc2)c2ccc(OC(C)=O)cc2)cc1,118 to 120
17,CC1(C)CCC(C)(C)c2c(O)cc(-c3ccccc3)cc21,121
18,O=C(NCCNCc1cc2ccc(O)cc2o1)C12CC3CC(CC(C3)C1)C2,136 to 139
19,N#CCc1cccc2c(=O)cc(C3(Br)CCCCC3)oc12,144 to 145
20,O=C1C=CC2(C=C1)CC(=O)N2OCc1ccccc1,77 to 79
21,O=c1[nH]c2cc(Cl)ccc2c(=O)cc1NCCc1ccccc1,284 to 287
22,CN(C)C(=O)c1cc2c(c(C(=O)O)c1)OC(c1ccccc1)(c1ccccc1)O2,207 to 208
23,COC(=O)c1cc(=O)c2oc3ccc(Cl)cc3c(=O)c2[nH]1,300 to 305

row,Compound,melting point [°C]
1,CN(C)CCNc1ccc(NC(=O)Nc2ccc(Oc3ccccc3)cc2)cc1[N+](=O)[O-],178 to 180
2,COc1ccc(-c2cc(=S)n(Cc3ccc(Cl)cc3Cl)nc2-c2ccc(OC)cc2)cc1,170
3,CCCCCCCCCCC1COc2c(C(=O)OCC)sc(C(=O)OCC)c2O1 (stereo unspecified),89 to 90
4,Clc1ccc2ccc(COc3cccc(CN4CCc5cccc(CCc6nnn[nH]6)c54)c3)nc2c1,137 to 140
5,N#CCC(O)(Cn1cncn1)c1ccc(F)cc1F (stereo unspecified),154 to 155
6,CON=C1SC(C)(c2ccccc2)C(=O)N1Nc1ccccc1 (stereo unspecified),133 to 134
7,CC(=O)Nc1cc(-c2ccncn2)c[nH]c1=O,> 250
8,O=C(Cc1ccc2ccccc2c1OCC1CO1)NCCO[N+](=O)[O-] (stereo unspecified),67 to 71
9,Cc1cc(C)c(N2C(=N)N(c3c(C)cccc3C)CC2C)c(C)c1 (stereo unspecified),128 to 130
10,CNc1nc(-c2ccccc2)c(-c2nc3ccccc3c(=O)n2-c2ccccc2Cl)s1,215 to 217
11,COc1ccc(-c2ccc(C(C)=NO)cc2)cc1,82 to 84
12,CCNc1ccc(C2(C)C(=O)Nc3cc(Cl)cc(Cl)c3C2=O)cc1 (stereo unspecified),197 to 198
13,CON=CNC(=O)c1ccc(C2=NOC(c3cc(Cl)cc(Cl)c3)(C(F)(F)F)C2)cc1C (stereo unspecified),167 to 169
14,CCOC(=O)C1=C(C)N=C(SCc2ccc(OC)cc2)N(C(=O)OCC)C1c1ccccc1OC (stereo unspecified),116 to 118
15,Cc1scc2c1N(C(=O)N1CCCC(CCCN(C)C)C1)c1ccccc1NC2=O (stereo unspecified),137 to 139
16,Cc1cccc(NC(=O)C2=C(O)c3ccc4ccccc4c3S(=O)(=O)N2)c1,245
17,COc1ccc(C2CC(=O)CC(c3ccc(OC)cc3)N2C)cc1 (stereo unspecified),129 to 130
18,COC(=O)c1c(C)c(OC)cc(O)c1C=O,118 to 119
19,COc1ccnc(Cl)c1N,86 to 87
20,CCCC(OC(=O)c1ccncc1)C(=O)O (racemic),152 to 153
21,O=C(O)c1cc(Cl)ccc1OC1CCOC1=O (stereo unspecified),159 to 160
22,Cc1nc(OCC#N)c(C#N)c(N2CCc3ccccc3CC2)n1,68 to 74
